These results are taken from patent US20050288238A1, “Benzocyclodecane derivatives with antitumor activity” (Pfizer Inc, priority 2004, published 2005).

This assay concerns the target T1, Pig brain tubulin (Sus scrofa, UniProt P02550+P02554).
T1 construct: Pig brain tubulin was prepared by two cycles of assembly and disassembly; from tissue; host or cells: pig brain
Kind of assay: Microtubule assembly and disassembly assay. Particulars: 0.5 mg/ml tubulin, 1 mM GTP, turbidity at 340 nm, reassembly after CaCl2 (5 mM). Format: biochemical. The procedure:
Microtubule assembly and disassembly assay.
Pig brain tubulin was prepared by two cycles of assembly and disassembly and it was stored in liquid nitrogen in Microtubule Assembly Buffer (MAB: 0.1 M MES, 2.5 mM EGTA, 0.5 mM MgSO4, 0.1 mM EDTA, 0.1 mM DTT pH 6.4). Assembly was monitored by the method of Gaskin et al. (Gaskin F, Cantor C R, Shelanski M L, 1974,: Turbidimetric studies of the in vitro assembly and disassembly of porcine neurotubules. J. Mol. Biol. 89: 737-758). The cuvette (1 cm path) containing 0.5 mg/ml tubulin and 1 mM GTP was shifted to 37° C. and continuous turbidity measurements were made at 340 nm on a spectrophotometer equipped with an automatic recorder and a thermostatically regulated sample chamber. After 30 min CaCl2 (5 mM) was added and disassembly was monitored for 10 min as decreased turbidity. Scalar doses of test compounds were monitored at regular intervals of 15 min.
(ED90) was calculated on this curve.

T1 sequence (P02550 whole entry): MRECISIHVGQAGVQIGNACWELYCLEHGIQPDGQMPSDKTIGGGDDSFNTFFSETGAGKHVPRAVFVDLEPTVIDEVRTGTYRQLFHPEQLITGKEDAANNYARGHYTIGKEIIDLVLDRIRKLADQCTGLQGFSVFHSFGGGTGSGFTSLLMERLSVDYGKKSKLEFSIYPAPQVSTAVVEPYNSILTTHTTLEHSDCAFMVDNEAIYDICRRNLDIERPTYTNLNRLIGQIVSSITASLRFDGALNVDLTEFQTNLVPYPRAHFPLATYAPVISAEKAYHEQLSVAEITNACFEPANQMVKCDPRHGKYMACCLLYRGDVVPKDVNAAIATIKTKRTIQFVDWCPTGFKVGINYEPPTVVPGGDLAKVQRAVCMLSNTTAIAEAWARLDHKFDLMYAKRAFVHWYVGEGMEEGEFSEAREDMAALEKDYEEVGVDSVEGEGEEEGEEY
T1 sequence (P02554 whole entry): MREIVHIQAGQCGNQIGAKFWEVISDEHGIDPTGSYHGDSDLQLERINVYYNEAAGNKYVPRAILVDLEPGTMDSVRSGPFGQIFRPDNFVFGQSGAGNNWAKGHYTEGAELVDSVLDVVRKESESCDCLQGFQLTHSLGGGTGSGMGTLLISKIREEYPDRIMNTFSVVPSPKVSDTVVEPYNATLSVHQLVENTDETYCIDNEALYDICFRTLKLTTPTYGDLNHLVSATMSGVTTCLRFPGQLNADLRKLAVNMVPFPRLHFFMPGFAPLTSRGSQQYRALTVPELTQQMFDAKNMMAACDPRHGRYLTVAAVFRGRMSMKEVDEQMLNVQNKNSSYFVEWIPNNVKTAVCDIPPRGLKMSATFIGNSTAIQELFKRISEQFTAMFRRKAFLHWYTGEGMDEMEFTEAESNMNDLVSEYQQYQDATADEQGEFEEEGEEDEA

`CC(=O)OC1C/C=C\CC(OC(=O)/C=C/c2cn(C)cn2)Cc2ccccc2C1` (stereo not shown) [I^v a, 11-(Acetyloxy)-5,6,7,10,11,12-hexahydrobenzo[a][10]annulen-6-yl (2E)-3-(1-methyl-1H-imidazol-4-yl)prop-2-enoate]: the “ED90 (dose effecting tubulin assembly by 90% at 37° C.)” value came to 10 µM.
